Assay results as given in PubChem BioAssay AID248 (DTP/NCI, 2004).
“And” between values parts separate entries of the source, which are not always exact repeats. Equal values may be shown once. Toxic doses and inconclusive results are not listed. No stated cut-off is given here; in the data, active means T/C of 150% or more; inactive means T/C below 125%.

System: L1210 leukemia ip in BDF1 mice, survival T/C
Assay: NCI In Vivo Anticancer Drug Screen. Data for tumor model L1210 Leukemia (intraperitoneal) in B6D2F1 (BDF1) mice
Conditions: endpoint: mean survival time, higher = longer survival
Method in brief: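 Transplanted-tumor mice were given test agent; controls received vehicle only. Survival readings from the two groups were divided (treated over control).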

[1] = dose: 25.0 mg/kg/injection, schedule: Q01DX009 (ip), vehicle: Klucel (hydroxypropylcellulose) (HPC)
[2] = dose: 25.0 mg/kg/injection, schedule: Q04DX003 (ip), vehicle: Klucel (hydroxypropylcellulose) (HPC)
[3] = dose: 100.0 mg/kg/injection, schedule: Q04DX003 (ip), vehicle: Klucel (hydroxypropylcellulose) (HPC)
[4] = dose: 100.0 mg/kg/injection, schedule: Q01DX009 (ip), vehicle: Klucel (hydroxypropylcellulose) (HPC)
[5] = dose: 200.0 mg/kg/injection, schedule: Q01DX009 (ip), vehicle: Klucel (hydroxypropylcellulose) (HPC)
[6] = dose: 400.0 mg/kg/injection, schedule: Q01DX009 (ip), vehicle: Klucel (hydroxypropylcellulose) (HPC)
[7] = dose: 100.0 mg/kg/injection, schedule: Q04DX003 (ip), vehicle: saline with Tween-80
[8] = dose: 200.0 mg/kg/injection, schedule: Q04DX003 (ip), vehicle: saline with Tween-80
[9] = dose: 400.0 mg/kg/injection, schedule: Q04DX003 (ip), vehicle: saline with Tween-80
[10] = dose: 100.0 mg/kg/injection, schedule: Q04DX002 (ip), vehicle: Klucel (hydroxypropylcellulose) (HPC)
[11] = dose: 200.0 mg/kg/injection, schedule: Q04DX002 (ip), vehicle: Klucel (hydroxypropylcellulose) (HPC)
[12] = dose: 400.0 mg/kg/injection, schedule: Q04DX002 (ip), vehicle: Klucel (hydroxypropylcellulose) (HPC)
[13] = dose: 100.0 mg/kg/injection, schedule: Q01DX009 (ip), vehicle: saline with Tween-80
[14] = dose: 100.0 mg/kg/injection, schedule: Q04DX002 (ip), vehicle: saline with Tween-80
[15] = dose: 200.0 mg/kg/injection, schedule: Q01DX009 (ip), vehicle: saline with Tween-80
[16] = dose: 200.0 mg/kg/injection, schedule: Q04DX002 (ip), vehicle: saline with Tween-80
[17] = dose: 400.0 mg/kg/injection, schedule: Q04DX002 (ip), vehicle: saline with Tween-80
[18] = dose: 50.0 mg/kg/injection, schedule: Q04DX002 (ip), vehicle: Klucel (hydroxypropylcellulose) (HPC)
[19] = dose: 100.0 mg/kg/injection, schedule: Q01DX001 (ip), vehicle: saline

Measured: T/C

c1ccc2c(c1)ccc1[nH]c3ccc4ccccc4c3c12
inactive: dose: 12.5 mg/kg/injection, schedule: Q01DX009 (ip), vehicle: Klucel (hydroxypropylcellulose) (HPC) 109 % of control | [1] 93 % of control | [2] 107 % of control | dose: 50.0 mg/kg/injection, schedule: Q04DX003 (ip), vehicle: Klucel (hydroxypropylcellulose) (HPC) 86 % of control | [3] 97 % of control

Nc1nc(=O)n(C2OC(CO)C(O)C2O)c2scnc12 (stereo not given)
inactive: dose: 50.0 mg/kg/injection, schedule: Q01DX005 (ip), vehicle: saline 107 % of control | dose: 100.0 mg/kg/injection, schedule: Q01DX005 (ip), vehicle: saline 107 % of control

COc1ccc(C(=O)c2ccccc2)c(OC(=O)Nc2ccc(Cl)cc2)c1
inactive: [4] 109 % of control | [5] 105 % of control | [6] 100 % of control

COc1c(NC(=O)c2ccccc2Cl)cccc1[N+](=O)[O-]
inactive: [1] 100 % of control | dose: 50.0 mg/kg/injection, schedule: Q01DX009 (ip), vehicle: Klucel (hydroxypropylcellulose) (HPC) 88 % of control | [4] 91 % of control and 92 % of control

COc1ccc(-c2oc3cc4c(cc3c2-c2ccc(OC)cc2)CCCC4)cc1
inactive: [7] 98 % of control | [8] 98 % of control | [9] 102 % of control

IC1CCCCC1[n+]1ccccc1 (stereo not given)
inactive: dose: 100.0 mg/kg/injection, schedule: Q04DX003 (sc), vehicle: olive oil, sesame oil, peanut oil 105 % of control | dose: 200.0 mg/kg/injection, schedule: Q04DX003 (sc), vehicle: olive oil, sesame oil, peanut oil 103 % of control | dose: 400.0 mg/kg/injection, schedule: Q04DX003 (sc), vehicle: olive oil, sesame oil, peanut oil 101 % of control

N#C/C(=C\c1cccc2ccccc12)c1ccc(Cl)cc1
inactive: dose: 87.5 mg/kg/injection, schedule: Q01DX009 (ip), vehicle: Klucel (hydroxypropylcellulose) (HPC) 95 % of control | dose: 175.0 mg/kg/injection, schedule: Q01DX009 (ip), vehicle: Klucel (hydroxypropylcellulose) (HPC) 96 % of control | dose: 350.0 mg/kg/injection, schedule: Q01DX009 (ip), vehicle: Klucel (hydroxypropylcellulose) (HPC) 97 % of control

COc1ccc(OCCO)cc1
inactive: [4] 95 % of control | [10] 96 % of control | [5] 98 % of control | [11] 93 % of control | [6] 103 % of control | [12] 100 % of control

COc1ccc(Cl)cc1NC(=O)Nc1cc(C)ccc1N=Nc1ccc(C)cc1
inactive: dose: 100.0 mg/kg/injection, schedule: Q01DX001 (ip), vehicle: saline with Tween-80 96 % of control and 91 % of control | [13] 88 % of control | [14] 87 % of control | dose: 200.0 mg/kg/injection, schedule: Q01DX001 (ip), vehicle: saline with Tween-80 96 % of control | [15] 94 % of control and 91 % of control | [16] 92 % of control | dose: 400.0 mg/kg/injection, schedule: Q01DX001 (ip), vehicle: saline with Tween-80 96 % of control and 88 % of control | dose: 400.0 mg/kg/injection, schedule: Q01DX009 (ip), vehicle: saline with Tween-80 94 % of control | [17] 92 % of control

CC1=C(Br)C(=O)NC1=O
inactive: [7] 107 % of control | [8] 101 % of control | [9] 107 % of control

O=C(c1ccccc1)C(c1ccccc1)C(O)(C(F)(F)F)C(F)(F)F (stereo not given)
inactive: [13] 103 % of control | [15] 97 % of control

CC1CN(C(C)(C)C)C1
inactive: dose: 100.0 mg/kg/injection, schedule: Q04DX003 (ip), vehicle: acetone 95 % of control

N=C1C=C(N)C(=O)c2ccccc21
inactive: dose: 0.78 mg/kg/injection, schedule: Q01DX009 (ip), vehicle: Klucel (hydroxypropylcellulose) (HPC) 103 % of control | dose: 1.56 mg/kg/injection, schedule: Q01DX009 (ip), vehicle: Klucel (hydroxypropylcellulose) (HPC) 103 % of control | dose: 3.13 mg/kg/injection, schedule: Q01DX009 (ip), vehicle: Klucel (hydroxypropylcellulose) (HPC) 107 % of control | [13] 101 % of control

CC(=O)[O][Hg][c]1ccc(Cl)cc1
inactive: dose: 5.0 mg/kg/injection, schedule: Q01DX001 (ip), vehicle: saline 89 % of control | dose: 10.0 mg/kg/injection, schedule: Q01DX001 (ip), vehicle: saline 94 % of control | dose: 20.0 mg/kg/injection, schedule: Q01DX001 (ip), vehicle: saline 96 % of control | dose: 40.0 mg/kg/injection, schedule: Q01DX001 (ip), vehicle: saline 89 % of control | dose: 80.0 mg/kg/injection, schedule: Q01DX001 (ip), vehicle: saline 91 % of control

O=C(NC1CCCCC1)Oc1c(Cl)cc(Cl)c(Cl)c1[N+](=O)[O-]
inactive: dose: 25.0 mg/kg/injection, schedule: Q04DX002 (ip), vehicle: saline with Tween-80 92 % of control | dose: 50.0 mg/kg/injection, schedule: Q04DX002 (ip), vehicle: saline with Tween-80 99 % of control | [14] 99 % of control and 114 % of control

CC(Cl)CN1Cc2ccccc2CCc2ccccc2C1 (stereo not given)
inactive: dose: 25.0 mg/kg/injection, schedule: Q04DX002 (ip), vehicle: Klucel (hydroxypropylcellulose) (HPC) 101 % of control | [18] 92 % of control

CC12CCCC=C1CC(C(C)(C)O)CC2 (stereo not given)
inactive: dose: 50.0 mg/kg/injection, schedule: Q01DX009 (ip), vehicle: saline with Tween-80 96 % of control | [13] 100 % of control | [15] 100 % of control

O=C(Nc1ccccc1Cl)N1CCOCC1
inactive: [10] 106 % of control | [11] 103 % of control | [12] 87 % of control

CCOc1ccc(-n2cnc3ccccc3c2=O)cc1CN(CCCl)CCCl
inactive: dose: 100.0 mg/kg/injection, schedule: Q01DX001 (ip), vehicle: Klucel (hydroxypropylcellulose) (HPC) 100 % of control | dose: 200.0 mg/kg/injection, schedule: Q01DX001 (ip), vehicle: Klucel (hydroxypropylcellulose) (HPC) 102 % of control | dose: 400.0 mg/kg/injection, schedule: Q01DX001 (ip), vehicle: Klucel (hydroxypropylcellulose) (HPC) 100 % of control

O=C(c1ccccc1)c1[nH]c2ccccc2c1-c1ccccc1
inactive: [14] 103 % of control | [16] 107 % of control | [17] 100 % of control

NC(=S)N/N=C/c1c(Cl)n(C(=O)c2ccc(Cl)cc2)c2ccccc12
inactive: [18] 91 % of control | [10] 87 % of control | [11] 91 % of control

Cc1ccc2[nH]c(O)c(N=Nc3ccccc3[N+](=O)[O-])c2c1
inactive: [19] 90 % of control | dose: 200.0 mg/kg/injection, schedule: Q01DX001 (ip), vehicle: saline 93 % of control

CC(=O)OC1CCC2(C)C(=CCC3C2CCC2(C)C3CC3C(c4ccccc4)=NN(c4ccccc4)C32C#N)C1 (stereo not given)
inactive: [10] 103 % of control | [11] 92 % of control | [12] 98 % of control

O=c1[nH]c(=O)[nH]c(=S)[nH]1
inactive: dose: 100.0 mg/kg/injection, schedule: Q01DX Z (ip), vehicle: methylcellulose (MC) 98 % of control | dose: 200.0 mg/kg/injection, schedule: Q01DX Z (ip), vehicle: methylcellulose (MC) 87 % of control

CCCCN1CC1(C)C (stereo not given)
inactive: dose: 25.0 mg/kg/injection, schedule: Q01DX009 (ip), vehicle: saline 105 % of control | dose: 50.0 mg/kg/injection, schedule: Q01DX009 (ip), vehicle: saline 105 % of control | [19] 98 % of control | dose: 100.0 mg/kg/injection, schedule: Q01DX009 (ip), vehicle: saline 106 % of control

COc1ccc2c3c1OC1C(O)C=CC4C(C2)N(C)CCC341 (stereo not given)
inactive: [19] 98 % of control

C=CCn1c2ccccc2c2cc3cnccc3c(C)c21
inactive: dose: 6.25 mg/kg/injection, schedule: Q04DX003 (ip), vehicle: Klucel (hydroxypropylcellulose) (HPC) 100 % of control | dose: 12.5 mg/kg/injection, schedule: Q04DX003 (ip), vehicle: Klucel (hydroxypropylcellulose) (HPC) 97 % of control | [2] 100 % of control | [3] 102 % of control | dose: 200.0 mg/kg/injection, schedule: Q04DX003 (ip), vehicle: Klucel (hydroxypropylcellulose) (HPC) 97 % of control | dose: 400.0 mg/kg/injection, schedule: Q04DX003 (ip), vehicle: Klucel (hydroxypropylcellulose) (HPC) 105 % of control
